Results on three molecules are retold here after article PMC8808744 (ACS chemical biology, 2019).

Molecules are shown by their SMILES. Values after ≈ are worked out from the molar mass of the structure shown.

One assay has as its target Slt (Pseudomonas aeruginosa, UniProt Q9HZI6). Briefly: biochemical. Format: binding.
The next assay concerns the target MltDsol (Pseudomonas aeruginosa, UniProt Q9I2T2). The assay can be described thus: biochemical. It counts as binding.
For a further assay, the target named is Ec MltGsol (Escherichia coli, UniProt P28306). Briefly: Dissociation constant by non-denaturing mass spectrometry, E. coli MltGsol. Format: binding.
Ec MltGsol, sequence (P28306 25-340 with tags or gaps limits assumed): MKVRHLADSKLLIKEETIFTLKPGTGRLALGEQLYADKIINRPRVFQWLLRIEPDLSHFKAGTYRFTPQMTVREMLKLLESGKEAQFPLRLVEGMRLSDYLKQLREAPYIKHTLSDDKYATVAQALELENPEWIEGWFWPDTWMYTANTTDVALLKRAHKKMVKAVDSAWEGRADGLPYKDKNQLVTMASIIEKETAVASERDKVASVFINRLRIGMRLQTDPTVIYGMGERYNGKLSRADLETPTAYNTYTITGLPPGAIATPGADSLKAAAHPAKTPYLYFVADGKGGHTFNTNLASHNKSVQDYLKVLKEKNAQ
The target in a further assay is SltB1 (Pseudomonas aeruginosa, UniProt Q9HX24). Briefly: biochemical. It counts as binding.
SltB1, sequence (Q9HX24 34-340 limits assumed): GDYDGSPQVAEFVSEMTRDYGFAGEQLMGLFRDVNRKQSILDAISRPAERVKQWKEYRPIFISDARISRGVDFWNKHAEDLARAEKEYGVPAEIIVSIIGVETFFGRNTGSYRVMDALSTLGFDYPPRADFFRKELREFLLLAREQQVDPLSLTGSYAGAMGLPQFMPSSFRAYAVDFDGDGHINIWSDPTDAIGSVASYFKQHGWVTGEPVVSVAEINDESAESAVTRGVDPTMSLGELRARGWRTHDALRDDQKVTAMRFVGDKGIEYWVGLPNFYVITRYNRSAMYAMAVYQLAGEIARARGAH
In assay [1] the test system is P. aeruginosa PAO1. Format: cell-based, Pseudomonas aeruginosa.
The subject of assay [2] is P. aeruginosa PAO1. Briefly: MIC against parent strain PAO1. To be noted: Pseudomonas aeruginosa. It counts as cell-based.
Assay [3] relates to wild-type P. aeruginosa PAO1. Briefly: Growth-curve assay in liquid medium. Format: cell-based, Pseudomonas aeruginosa. The following applies: CAZ at 0.28 μg mL^−1, MEM at 0.14 μg mL^−1 (sub-MIC).

Slt, sequence (Q9HZI6 25-642 limits assumed): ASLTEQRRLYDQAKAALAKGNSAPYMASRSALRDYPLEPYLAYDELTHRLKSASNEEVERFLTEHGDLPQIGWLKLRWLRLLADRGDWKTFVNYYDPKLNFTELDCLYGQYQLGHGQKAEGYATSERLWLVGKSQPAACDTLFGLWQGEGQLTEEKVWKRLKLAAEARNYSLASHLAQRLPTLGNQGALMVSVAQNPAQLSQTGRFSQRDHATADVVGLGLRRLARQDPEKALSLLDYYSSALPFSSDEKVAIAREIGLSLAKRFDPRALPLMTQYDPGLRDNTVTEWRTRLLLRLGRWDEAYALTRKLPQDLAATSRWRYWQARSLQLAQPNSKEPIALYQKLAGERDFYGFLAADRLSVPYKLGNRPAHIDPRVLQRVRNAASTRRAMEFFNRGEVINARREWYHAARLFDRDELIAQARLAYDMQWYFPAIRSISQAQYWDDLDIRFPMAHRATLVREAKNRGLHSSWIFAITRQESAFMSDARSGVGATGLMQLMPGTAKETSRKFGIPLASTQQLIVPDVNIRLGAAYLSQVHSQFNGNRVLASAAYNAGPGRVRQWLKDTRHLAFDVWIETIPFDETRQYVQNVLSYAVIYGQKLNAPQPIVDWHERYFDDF
MltDsol, sequence (Q9I2T2 32-534 limits assumed): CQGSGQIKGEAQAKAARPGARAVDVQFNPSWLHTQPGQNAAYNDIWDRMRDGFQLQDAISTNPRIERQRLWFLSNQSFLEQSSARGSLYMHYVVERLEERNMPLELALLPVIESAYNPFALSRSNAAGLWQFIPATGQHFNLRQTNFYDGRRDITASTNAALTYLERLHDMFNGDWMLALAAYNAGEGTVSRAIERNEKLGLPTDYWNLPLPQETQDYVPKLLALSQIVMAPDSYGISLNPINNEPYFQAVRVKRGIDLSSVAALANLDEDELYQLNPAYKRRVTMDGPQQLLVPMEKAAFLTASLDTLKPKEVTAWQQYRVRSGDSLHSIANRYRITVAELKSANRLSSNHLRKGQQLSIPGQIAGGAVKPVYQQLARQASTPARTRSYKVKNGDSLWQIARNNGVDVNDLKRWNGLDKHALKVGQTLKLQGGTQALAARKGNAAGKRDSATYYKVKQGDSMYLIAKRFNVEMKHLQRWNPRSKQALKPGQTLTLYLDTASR

`CC(=O)N[C@H]1[C@H](O[C@H]2C[C@@H](C(=O)NCCS(=O)(=O)O)N[C@@H]2CO)O[C@H](CO)[C@@H](OS(=O)(=O)O)[C@@H]1O` [Bulgecin A]: the Kd was determined as 8.5 ± 1.1 µM at Slt, 1.4 ± 0.3 µM at MltDsol, 24 ± 5.1 µM at Ec MltGsol and 160 ± 21 µM at SltB1. For the same molecule, the “recovery of CAZ/bulgecin A-damaged bacteria” value with P. aeruginosa PAO1 [1] was “delayed recovery”.
Turning to `CC(C)(O/N=C(\C(=O)N[C@@H]1C(=O)N2C(C(=O)[O-])=C(C[n+]3ccccc3)CS[C@H]12)c1csc(N)n1)C(=O)O` [CAZ, Ceftazidime], in the assay with P. aeruginosa PAO1 [2], the MIC amounted to 0.5 µg/mL (≈ 0.915 µM). In assay [3], the “growth of wild-type PAO1 with β-lactam alone” value was “normal growth”.
For `C[C@@H](O)[C@H]1C(=O)N2C(C(=O)O)=C(S[C@@H]3CN[C@H](C(=O)N(C)C)C3)[C@H](C)[C@H]12` [MEM, Meropenem], the MIC in the assay on P. aeruginosa PAO1 [2] was found to be 0.5 µg/mL (≈ 1.3 µM). Further, the “growth of wild-type PAO1 with β-lactam alone” value in assay [3] is given as “normal growth”.
